Reference: the CheMixHub viscosity set
± gives the uncertainty stated by the source.

Test: xn = mol fraction of the nth substance listed

CN(C)CCCO + O
viscosity [mPa·s], 101 kPa
Settings | 303.15 K | 308.15 K | 313.15 K | 318.15 K | 323.15 K
x1 = 0.0478 | 2.218 ± 0.021 | 1.896 ± 0.016 | 1.635 ± 0.015 | 1.432 ± 0.014 | 1.262 ± 0.013
x1 = 0.0968 | 4.633 ± 0.036 | 3.796 ± 0.029 | 3.147 ± 0.025 | 2.654 ± 0.021 | 2.264 ± 0.019
x1 = 0.1512 | 7.882 ± 0.058 | 6.285 ± 0.049 | 5.078 ± 0.04 | 4.181 ± 0.032 | 3.481 ± 0.028
x1 = 0.2009 | – | 8.49 ± 0.067 | 6.753 ± 0.053 | 5.485 ± 0.043 | 4.497 ± 0.038
x1 = 0.2997 | 14.97 ± 0.11 | 11.59 ± 0.097 | 9.103 ± 0.075 | 7.288 ± 0.059 | 5.903 ± 0.052
x1 = 0.3537 | – | 12.35 ± 0.11 | 9.663 ± 0.082 | 7.732 ± 0.065 | 6.247 ± 0.055
x1 = 0.4037 | 16.02 ± 0.13 | 12.42 ± 0.11 | 9.761 ± 0.084 | 7.792 ± 0.067 | 6.34 ± 0.057
x1 = 0.4574 | 15.39 ± 0.13 | 12 ± 0.11 | 9.458 ± 0.084 | 7.631 ± 0.067 | 6.19 ± 0.057
x1 = 0.499 | 14.63 ± 0.13 | 11.46 ± 0.11 | 9.077 ± 0.082 | 7.329 ± 0.066 | 5.974 ± 0.056
x1 = 0.6012 | 12.08 ± 0.11 | 9.654 ± 0.092 | 7.784 ± 0.074 | 6.38 ± 0.061 | 5.271 ± 0.052
x1 = 0.7274 | 9.064 ± 0.091 | 7.42 ± 0.075 | 6.133 ± 0.063 | 5.114 ± 0.052 | 4.304 ± 0.045
x1 = 0.8081 | 7.504 ± 0.079 | 6.239 ± 0.066 | 5.224 ± 0.056 | 4.417 ± 0.047 | 3.765 ± 0.041
x1 = 0.9112 | 5.925 ± 0.067 | 5.02 ± 0.057 | 4.261 ± 0.048 | 3.658 ± 0.042 | 3.168 ± 0.036

O=C(Nc1ccccc1)Nc1ccccc1 + c1ccncc1
298.15 K, 101 kPa
Settings | viscosity [mPa·s]
x1 = 0.022 | 1.045 ± 0.21
x1 = 0.0281 | 1.079 ± 0.22

CCC1CCCCC1 + CCCCCCCC(=O)OCC
viscosity [mPa·s], 100 kPa
Settings | x1 = 0.1001 | x1 = 0.2 | x1 = 0.3 | x1 = 0.3998 | x1 = 0.5 | x1 = 0.5997 | x1 = 0.7 | x1 = 0.8001 | x1 = 0.9
293.15 K | 1.446 ± 0.045 | 1.359 ± 0.042 | 1.278 ± 0.04 | 1.201 ± 0.038 | 1.128 ± 0.035 | 1.058 ± 0.033 | 0.992 ± 0.031 | 0.929 ± 0.029 | 0.877 ± 0.027
298.15 K | 1.328 ± 0.041 | 1.254 ± 0.039 | 1.182 ± 0.037 | 1.113 ± 0.035 | 1.046 ± 0.033 | 0.983 ± 0.031 | 0.924 ± 0.029 | 0.869 ± 0.027 | 0.821 ± 0.026
303.15 K | 1.224 ± 0.038 | 1.156 ± 0.036 | 1.09 ± 0.034 | 1.03 ± 0.032 | 0.971 ± 0.03 | 0.916 ± 0.029 | 0.862 ± 0.027 | 0.812 ± 0.025 | 0.768 ± 0.024
308.15 K | 1.132 ± 0.035 | 1.071 ± 0.033 | 1.012 ± 0.032 | 0.957 ± 0.03 | 0.903 ± 0.028 | 0.854 ± 0.027 | 0.808 ± 0.025 | 0.762 ± 0.024 | 0.72 ± 0.023
313.15 K | 1.039 ± 0.032 | 0.985 ± 0.031 | 0.932 ± 0.029 | 0.882 ± 0.028 | 0.835 ± 0.026 | 0.792 ± 0.025 | 0.749 ± 0.023 | 0.709 ± 0.022 | 0.674 ± 0.021
318.15 K | 0.977 ± 0.031 | 0.927 ± 0.029 | 0.879 ± 0.027 | 0.833 ± 0.026 | 0.79 ± 0.025 | 0.748 ± 0.023 | 0.71 ± 0.022 | 0.672 ± 0.021 | 0.64 ± 0.02
323.15 K | 0.902 ± 0.028 | 0.856 ± 0.027 | 0.812 ± 0.025 | 0.771 ± 0.024 | 0.733 ± 0.023 | 0.696 ± 0.022 | 0.661 ± 0.021 | 0.625 ± 0.02 | 0.595 ± 0.019

Cc1cccc2ccccc12 + CC1CCCCC1
viscosity [mPa·s], 100 kPa
Settings | x1 = 0.125 | x1 = 0.25 | x1 = 0.375 | x1 = 0.5 | x1 = 0.625 | x1 = 0.75 | x1 = 0.875
303.15 K | 0.715 ± 0.016 | 0.829 ± 0.019 | 0.972 ± 0.023 | 1.13 ± 0.027 | 1.37 ± 0.033 | 1.67 ± 0.04 | 2.06 ± 0.051
323.15 K | 0.559 ± 0.013 | 0.64 ± 0.015 | 0.733 ± 0.017 | 0.853 ± 0.02 | 1.01 ± 0.024 | 1.2 ± 0.029 | 1.44 ± 0.036

Cc1cccc2ccccc12 + Cc1ccccc1
viscosity [mPa·s], 100 kPa
Settings | x2 = 0.2784 | x2 = 0.6068 | x2 = 0.8224
298.15 K | 1.646 ± 0.16 | 1.036 ± 0.099 | 0.731 ± 0.069
313.15 K | 1.285 ± 0.12 | 0.841 ± 0.08 | 0.608 ± 0.058

CC(=O)N(C)C + COC(=O)OC
298.15 K, 101 kPa
Settings | viscosity [mPa·s]
x2 = 0.0376 | 0.937 ± 0.007
x2 = 0.0836 | 0.914 ± 0.007
x2 = 0.1443 | 0.887 ± 0.007
x2 = 0.2234 | 0.854 ± 0.007
x2 = 0.3348 | 0.807 ± 0.007
x2 = 0.4705 | 0.757 ± 0.006
x2 = 0.5544 | 0.726 ± 0.006
x2 = 0.6212 | 0.702 ± 0.006
x2 = 0.6902 | 0.679 ± 0.006
x2 = 0.7541 | 0.659 ± 0.006
x2 = 0.8244 | 0.636 ± 0.005
x2 = 0.9102 | 0.608 ± 0.005
